{
  "source": "patent US20130252837A1",
  "about": "“METHOD FOR MEASURING RESISTANCE OR SENSITIVITY TO DOCETAXEL” (Sanofi US, priority 2004, published 2013)",
  "system": "caspase-3",
  "test": "active caspase-3 levels, beadmates kit / Luminex",
  "assay_type": "cell-based, human",
  "conditions": "40 nM docetaxel, 48 hours, control siRNA cells",
  "from_the_text": "Docetaxel can cause cell death through induction of apoptosis (Kim et al., Int J Mol Med 11:799, 2003). To determine whether Pim-1 and BubR1 siRNAs could modulate a canonical apoptotic pathway in the absence and presence docetaxel, we studied activated caspase-3 levels in HCT116 cells (using a bioplex assay) (FIG. 14).\nIn an attempt to define the molecular basis for enhanced cell death associated with a Pim-1 knockdown, we examined the activation state of a key cellular pathway involved in cell survival, AKT. HCT116 were seeded at 4×10^5 cells/well on 6-well plates and the next day transfected with siRNAs at 16 nM using Lipofectamine 2000 (Invitrogen). After 24 hours, cells were untreated or treated with 5 and 40 nM docetaxel. Cells were lysed 24, 48 and 72 hours after docetaxel addition with ice-cold lysis buffer (50 mM HEPES buffer (PH7.4), 1% NP40, 2.5 mM EDTA, 100 mM sodium fluoride, 10 mM sodium PPI, protease inhibitor cocktail tablet (Roche), 2 mM sodium orthovanadate) and centrifuged at 12,000 g for 10 minutes. Lysates were then quantified for total protein levels using DC protein assay (BioRad).",
  "data": [
    {"smiles": "CC(=O)O[C@@]12CO[C@@H]1C[C@H](O)[C@@]1(C)C(=O)[C@H](O)C3=C(C)[C@@H](OC(=O)[C@H](O)[C@@H](NC(=O)OC(C)(C)C)c4ccccc4)C[C@@](O)([C@@H](OC(=O)c4ccccc4)[C@H]21)C3(C)C", "note": "[docetaxel]", "values": [
      {"measurement": "caspase-3 activity in control cells", "result": "induced"}
    ]}
  ]
}
